{"source": "ChEMBL document CHEMBL2434882", "about": "“A novel [1,2,4] triazolo [1,5-a] pyrimidine-based phenyl-linked steroid dimer: synthesis and its cytotoxic activity” (Eur J Med Chem, 2013)", "key": {"ECa-109 cell line [1]": {"tested_on": "ECa-109 cell line", "assay": "Induction of apoptosis in human EC109 cells assessed as late apoptotic cells at 40 uM after 12 hrs by annexin V-FITC/propidium iodide staining-based flow cytometric analysis (reference value: 1.4%)", "assay_type": "functional"}, "MCF7": {"tested_on": "MCF7", "assay": "Cytotoxicity against human MCF7 cells assessed as growth inhibition after 72 hrs by MTT assay", "assay_type": "functional, cell-based", "conditions": "MCF7, 72 h"}, "ECa-109 cell line [2]": {"tested_on": "ECa-109 cell line", "assay": "Induction of apoptosis in human EC109 cells assessed as late apoptotic cells at 40 uM after 24 hrs by annexin V-FITC/propidium iodide staining-based flow cytometric analysis (reference value: 2.5%)", "assay_type": "functional"}, "[3]": {"assay": "Cell cycle arrest in human EC109 cells assessed as accumulation at G2/M phase at 5 uM after 12 hrs by propidium iodide staining-based flow cytometric analysis (reference value: 13.72%)", "assay_type": "functional", "conditions": "ECa-109"}, "ECa-109 cell line [4]": {"tested_on": "ECa-109 cell line", "assay": "Induction of apoptosis in human EC109 cells assessed as live cells at 10 uM after 12 hrs by annexin V-FITC/propidium iodide staining-based flow cytometric analysis (reference value: 92.1%)", "assay_type": "functional"}, "ECa-109 cell line [5]": {"tested_on": "ECa-109 cell line", "assay": "Induction of apoptosis in human EC109 cells assessed as early apoptotic cells at 5 uM after 12 hrs by annexin V-FITC/propidium iodide staining-based flow cytometric analysis (reference value: 6.1%)", "assay_type": "functional"}, "ECa-109 cell line [6]": {"tested_on": "ECa-109 cell line", "assay": "Induction of apoptosis in human EC109 cells assessed as late apoptotic cells at 20 uM after 12 hrs by annexin V-FITC/propidium iodide staining-based flow cytometric analysis (reference value: 1.4%)", "assay_type": "functional"}, "ECa-109 cell line [7]": {"tested_on": "ECa-109 cell line", "assay": "Induction of apoptosis in human EC109 cells assessed as early apoptotic cells at 40 uM after 24 hrs by annexin V-FITC/propidium iodide staining-based flow cytometric analysis (reference value: 3.8%)", "assay_type": "functional"}, "[8]": {"assay": "Cell cycle arrest in human EC109 cells assessed as accumulation at G0/G1 phase at 10 uM after 12 hrs by propidium iodide staining-based flow cytometric analysis (reference value: 50.87%)", "assay_type": "functional", "conditions": "ECa-109"}, "ECa-109 cell line [9]": {"tested_on": "ECa-109 cell line", "assay": "Induction of apoptosis in human EC109 cells assessed as change in cellular morphology at 1.25 to 20 uM after 24 hrs by inverted microscopic analysis", "assay_type": "functional, cell-based"}, "ECa-109 cell line [10]": {"tested_on": "ECa-109 cell line", "assay": "Induction of apoptosis in human EC109 cells assessed as late apoptotic cells at 10 uM after 24 hrs by annexin V-FITC/propidium iodide staining-based flow cytometric analysis (reference value: 2.5%)", "assay_type": "functional"}, "[11]": {"assay": "Cell cycle arrest in human EC109 cells assessed as accumulation at G0/G1 phase at 2.5 uM after 24 hrs by propidium iodide staining-based flow cytometric analysis (reference value: 51.57%)", "assay_type": "functional", "conditions": "ECa-109"}}, "note": "The source made the active and inactive calls. The calls are words filed in the database; no cut-off is given here.", "data": [{"smiles": "C[C@]12CC[C@H](O)CC1=CC[C@@H]1[C@@H]2CC[C@]2(C)c3nc4ncnn4c(-c4cccc(-c5c6c(nc7ncnn57)[C@@]5(C)CC[C@H]7[C@@H](CC=C8C[C@@H](O)CC[C@@]87C)[C@@H]5C6)c4)c3C[C@@H]12", "values": [{"measurement": "Activity", "setting": "ECa-109 cell line [1]", "result": 65.3, "unit": "%"}, {"measurement": "IC50", "setting": "MCF7", "result": 1190, "unit": "nM"}, {"measurement": "Activity", "setting": "ECa-109 cell line [2]", "result": 78.4, "unit": "%"}, {"measurement": "Activity", "setting": "[3]", "result": 20.8, "unit": "%"}, {"measurement": "Activity", "setting": "ECa-109 cell line [4]", "result": 54, "unit": "%"}, {"measurement": "Activity", "setting": "ECa-109 cell line [5]", "result": 24.1, "unit": "%"}, {"measurement": "Activity", "setting": "ECa-109 cell line [6]", "result": 51.1, "unit": "%"}, {"measurement": "Activity", "setting": "ECa-109 cell line [7]", "result": 12, "unit": "%"}, {"measurement": "Activity", "setting": "[8]", "result": 48.6, "unit": "%"}, {"measurement": "Activity", "setting": "ECa-109 cell line [9]", "result": "Active"}, {"measurement": "Activity", "setting": "ECa-109 cell line [10]", "result": 47.7, "unit": "%"}, {"measurement": "Activity", "setting": "[11]", "result": 52.5, "unit": "%"}]}]}
